Test results taken from patent US20260109725A1, “MACROLIDE SENOLYTIC COMPOUNDS” (LUNELLA BIOTECH, INC., priority 2022, published 2026).

What was measured:
[1] = system: Acinetobacter baumannii ATCC 17978; experiment: in vitro broth microdilution assay (MIC); assay type: cell-based; conditions: ATCC17978
Description: (§1) This is advantageous because use of the compounds of the present approach as therapeutic agents will have less of an impact on the development of antibiotic resistance. For example, embodiments of the present approach were screened for antibiotic activity, using the in vitro broth microdilution assay. […] The assay conditions, described by the Clinical and Laboratory Standards Institute were used for preparation of the inoculum, growth medium, and end point reading. Test substance was dissolved in 100% DMSO, suspended completely by vortexing, diluted by 2-fold serial titrations in the same vehicle, for a total of 11 test concentrations. A 4 μL aliquot of each dilution was added to 196 μL of broth medium seeded with the organism suspension in wells of a 96 well plate (bacterial count: 2-8×10(5) colony forming units/mL final). The final volume was 200 μL in each well and the final DMSO concentration was 2 percent. Test concentrations were 0.1 to 100 μM. Following incubation, the test plates were visually examined and wells were scored for growth or complete growth inhibition to define the minimum inhibitory concentration. Each test substance was evaluated with replicates. Vehicle controls and an active reference agent were used as blank and positive controls. Note that MRSA represents methicillin-resistant Staphylococcus aureus, and VRE represents vancomycin resistant Enterococcus.

[2] = system: Enterococcus faecalis ATCC 29212; experiment: in vitro broth microdilution assay (MIC); assay type: cell-based; conditions: ATCC29212; Enterococcus faecalis ATCC 29212, QC strain
Description: as §1

[3] = system: Enterococcus faecium ATCC 700221 VanA VRE; experiment: in vitro broth microdilution assay (MIC); assay type: cell-based
Description: as §1

[4] = system: Haemophilus influenzae ATCC 49247; experiment: in vitro broth microdilution assay (MIC); assay type: cell-based; conditions: ATCC49247; Haemophilus influenzae ATCC 49247, QC strain
Description: as §1

control MRC-5 cells = experiment: xCELLigence assay, control MRC-5 cells; assay type: cell-based, human; conditions: 50 μM, 5 days
From the text: Senescent cells undergo the so-called senescence-associated secretory phenotype (SASP), which involves dramatic increases in the synthesis and secretion of proteins. The xCELLigence assay system was used to assess whether protein measurement assays under-estimate the senolytic activity of tested compounds. […] The real-time xCELLigence assay system thus compliments the more static SRB assay, and offers a more direct visualization of the potential senolytic effects of compounds during drug screening.
The xCELLigence assay was used to confirm senolytic activity for Compound [I]. MRC-5 fibroblasts were used for the assay. […] The data is expressed as the final cell index, the average±the standard error of mean, for the control cells, control cells treated with Compound [I], BrdU-treated control cells, and BrdU-treated fibroblasts subjected to Compound [I] at 50 μM, respectively. The senescent MRC-5 cells were pretreated with BrdU for 8 days to induce senescence, before exposure to Compound [I] for another 5 days. Compared to the control, Compound [I] treatment had no effect on the viability of normal fibroblasts, but killed over 90% of the BrdU-treated fibroblasts.
xCELLigence Assay System: xCELLigence RTCA System (ACEA Biosciences Inc.). […] This approach allows the quantification of the onset and kinetics of the cellular response. […]

senescent MRC-5 cells = experiment: Images of MRC-5 fibroblasts with BrdU pre-treatment; assay type: cell-based, human; conditions: 50 μM
Description: FIGS. 3A and 3B are images of MRC-5 fibroblasts without and with BrdU pre-treatment, respectively, treated with Compound [I] at a concentration of 50 μM. […] The scale bar in the upper-right of FIGS. 3B and 3C represents 20 μm.
BrdU Assay: Cells were plated into 24-well plates. Next day, half of the plate was treated with 100 μM of BrdU while control wells were treated with vehicle only (DMSO) and incubated for 8 days at 37° C. in a 5% CO2 humidified atmosphere. After 8 days of BrdU treatment cells were treated with various test compounds or drugs (e.g., azithromycin, roxithromycin, telithromycin, erythromycin, etc.) for another 3-5 days. BrdU or vehicle treatments were continued during the drug treatments as well.

MCF-7 cells = experiment: mammosphere formation assay (3D anchorage independent growth); assay type: cell-based, human
Description: The compounds disclosed herein may also be used as therapeutic agent to selectively eradicate CSCs for treating and/or preventing tumor recurrence and/or metastasis. […] This assay measures the amount of residual protein that adheres to tissue culture dishes and is a surrogate marker of cell viability.
3D Anchorage Independent Growth Assay: This assay is also referred to as the mammosphere formation assay. A single-cell suspension was prepared using enzymatic, and manual disaggregation (25-g needle). Then, cells were plated at a density of 500 cells/cm^2 in mammosphere medium (DMEM-F12+1X B-27 Plus Supplement+20 ng/ml EGF+Pen/Strep) under non-adherent conditions, in culture dishes pre-coated with (2-hydroxyethylmethacrylate) (poly-HEMA, Sigma Aldrich Inc.), called “mammosphere plates.” Cells were grown for 5 days and maintained in a humidified incubator at 37° C. After 5 days of culture, 3D-mammospheres >50 μm were counted using an eye piece (“graticule”), and the percentage of cells plated which formed spheres was calculated and is referred to as percent mammosphere formation, and was normalized to one (1=100% MFE). 3D mammosphere formation efficiency (MFE) was analyzed in both the ATP-low and ATP-high sub-populations of cells. All 3D mammosphere experiments were performed in triplicate, at least 3 times independently.

With `CC[C@H]1OC(=O)[C@H](C)[C@@H](O[C@@H]2C[C@@](C)(OC)[C@@H](O)[C@H](C)O2)[C@H](C)[C@@H](O[C@@H]2O[C@H](C)C[C@H](N(C)C)[C@H]2OC(=O)OCc2ccc(O[C@@H]3O[C@H](COC(C)=O)[C@H](OC(C)=O)[C@H](OC(C)=O)[C@H]3OC(C)=O)c([N+](=O)[O-])c2)[C@](C)(O)C[C@@H](C)CN(C)[C@H](C)[C@@H](O)[C@]1(C)O` [Compound [I], [(2R,3S,4S,5R,6S)-3,4,5-triacetoxy-6-[4-[[(2S,3R,4S,6R)-4-(dimethylamino)-2-[[(2R,3S,4R,5R,8R,10R,11R,12S,13S,14R)-2-ethyl-3,4,10-trihydroxy-13-[(2S,4R,5S,6S)-5-hydroxy-4-methoxy-4,6-dimethyl-tetrahydropyran-2-yl]oxy-3,5,6,8,10,12,14-heptamethyl-15-oxo-1-oxa-6-azacyclopentadec-11-yl]oxy]-6-methyl-tetrahydropyran-3-yl]oxycarbonyloxymethyl]-2-nitro-phenoxy]tetrahydropyran-2-yl]methyl acetate] the MIC [1] was 100 µM, the MIC [2] was 25 µM and the MIC [3] was greater than 100 µM. For the same compound, the MIC [4] was 3.12 µM, the “effect on viability of normal fibroblasts (xCELLigence final cell index)” value (control MRC-5 cells) was “no effect” and the “effect on senescent MRC-5 cells (images)” value (senescent MRC-5 cells) was “induced cell death”. For the same compound, the “inhibition of mammosphere formation” value (MCF-7 cells; 100 μM) was “nearly complete inhibition” and the IC50 (MCF-7 cells; Homo sapiens, MCF7) was 60 µM.
